Values joined by “and” are separate entries in the source; they are usually repeats but may differ in a detail not shown here. Equal values may be shown once. Inconclusive results and toxic doses are left out. Rule for the calls: active = survival T/C of 150% or more; inactive = T/C below 125% in these data. Bridge positions count the residues as written; N and C are the ends. Peptide text beside a SMILES is read from it. I, II: the chains in the order shown.
System: P388 leukemia ip, CD2F1 mice, survival T/C
Assay: NCI In Vivo Anticancer Drug Screen. Data for tumor model P388 Leukemia (intraperitoneal) in CD2F1 (CDF1) mice
Conditions: endpoint: median survival time, higher = longer survival
Procedure, shortened: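 Mice carrying the transplanted tumor received test compound or vehicle. Survival was recorded in each group, and the value is the treated-group measurement divided by that of the vehicle-treated control group.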

[1] = dose: 50.0 mg/kg/injection, schedule: Q01DX005 (ip), vehicle: Klucel (hydroxypropylcellulose) (HPC)
[2] = dose: 100.0 mg/kg/injection, schedule: Q01DX005 (ip), vehicle: Klucel (hydroxypropylcellulose) (HPC)
[3] = dose: 50.0 mg/kg/injection, schedule: Q01DX005 (ip), vehicle: saline
[4] = dose: 100.0 mg/kg/injection, schedule: Q01DX005 (ip), vehicle: saline
[5] = dose: 200.0 mg/kg/injection, schedule: Q01DX005 (ip), vehicle: saline
[6] = dose: 50.0 mg/kg/injection, schedule: Q01DX009 (ip), vehicle: suspension in saline
[7] = dose: 50.0 mg/kg/injection, schedule: Q01DX005 (ip), vehicle: saline with Tween-80
[8] = dose: 100.0 mg/kg/injection, schedule: Q01DX005 (ip), vehicle: saline with Tween-80
[9] = dose: 200.0 mg/kg/injection, schedule: Q01DX005 (ip), vehicle: saline with Tween-80
[10] = dose: 25.0 mg/kg/injection, schedule: Q01DX005 (ip), vehicle: saline with Tween-80
[11] = dose: 100.0 mg/kg/injection, schedule: Q04DX003 (ip), vehicle: saline

Measured: T/C

CC(NC(=O)C(N)CSSCC(N)C(=O)NC(C)C(=O)O)C(=O)O (stereo not drawn) (I: H-Cys-Ala-OH / II: H-Cys-Ala-OH; disulfide I:1-II:1; configuration not given here)
inactive: [1] 100 % of control | [2] 104 % of control | dose: 200.0 mg/kg/injection, schedule: Q01DX005 (ip), vehicle: Klucel (hydroxypropylcellulose) (HPC) 110 % of control

c1ccc(CN2COC3CCCCC32)cc1 (stereo unspecified)
inactive: dose: 25.0 mg/kg/injection, schedule: Q01DX005 (ip), vehicle: saline 107 % of control and 108 % of control | [3] 101 % of control and 105 % of control and 119 % of control | [4] 101 % of control and 107 % of control and 121 % of control | [5] 103 % of control and 105 % of control

O=CN1CCCC1Cc1ccc2ccccc2c1 (stereo unspecified)
inactive: dose: 50.0 mg/kg/injection, schedule: Q01DX001 (ip), vehicle: Klucel (hydroxypropylcellulose) (HPC) 107 % of control | dose: 100.0 mg/kg/injection, schedule: Q01DX001 (ip), vehicle: Klucel (hydroxypropylcellulose) (HPC) 98 % of control | dose: 200.0 mg/kg/injection, schedule: Q01DX001 (ip), vehicle: Klucel (hydroxypropylcellulose) (HPC) 101 % of control

c1ccc(CN2CC[N+](Cc3ccccc3)=C2C2=[N+](Cc3ccccc3)CCN2Cc2ccccc2)cc1
inactive: dose: 12.5 mg/kg/injection, schedule: Q01DX009 (ip), vehicle: suspension in saline 89 % of control | dose: 25.0 mg/kg/injection, schedule: Q01DX009 (ip), vehicle: suspension in saline 96 % of control | [6] 91 % of control

COC(=O)C1=COC(C)C2CN3CCc4c([nH]c5cc(OC)ccc45)C3CC12 (stereo unspecified)
inactive: [7] 91 % of control | [8] 109 % of control | [9] 109 % of control

N#CC1=CCc2ccccc2N1C(=O)Oc1ccccc1
inactive: dose: 60.0 mg/kg/injection, schedule: Q01DX005 (ip), vehicle: saline with Tween-80 97 % of control | dose: 120.0 mg/kg/injection, schedule: Q01DX005 (ip), vehicle: saline with Tween-80 88 % of control | dose: 240.0 mg/kg/injection, schedule: Q01DX005 (ip), vehicle: saline with Tween-80 88 % of control

CCOc1cccc(/C=N/NC(=O)C(=O)Nc2ccc(Cl)c([N+](=O)[O-])c2)c1O
inactive: [7] 100 % of control | [8] 89 % of control | [9] 90 % of control

CCCCCCSc1nn(CCC#N)c(=O)[nH]c1=O
inactive: dose: 25.0 mg/kg/injection, schedule: Q01DX005 (ip), vehicle: distilled water + alcohol 103 % of control | dose: 50.0 mg/kg/injection, schedule: Q01DX005 (ip), vehicle: distilled water + alcohol 108 % of control | dose: 100.0 mg/kg/injection, schedule: Q01DX005 (ip), vehicle: distilled water + alcohol 103 % of control | dose: 200.0 mg/kg/injection, schedule: Q01DX005 (ip), vehicle: distilled water + alcohol 92 % of control

O=C1CSC(=S)N1c1ccc(I)cc1
inactive: [6] 101 % of control | dose: 100.0 mg/kg/injection, schedule: Q01DX009 (ip), vehicle: suspension in saline 101 % of control | dose: 200.0 mg/kg/injection, schedule: Q01DX009 (ip), vehicle: suspension in saline 114 % of control

OC1(c2ccccc2)c2ccccc2NC2=NCCN21 (stereo unspecified)
inactive: [10] 105 % of control | [7] 96 % of control | [8] 104 % of control | [9] 97 % of control

CC1Cc2ccc(OCCN(C)C)cc2C1O (stereo unspecified)
inactive: [3] 104 % of control | [4] 102 % of control | [5] 104 % of control

O=[N+]([O-])C(Br)(CO)CCC(Br)(CO)[N+](=O)[O-] (stereo unspecified)
inactive: dose: 6.25 mg/kg/injection, schedule: Q01DX001 (ip), vehicle: Klucel (hydroxypropylcellulose) (HPC) 111 % of control | dose: 12.5 mg/kg/injection, schedule: Q01DX001 (ip), vehicle: Klucel (hydroxypropylcellulose) (HPC) 104 % of control | dose: 25.0 mg/kg/injection, schedule: Q01DX001 (ip), vehicle: Klucel (hydroxypropylcellulose) (HPC) 107 % of control

CC1(C)C=C(Cc2ccccc2)C(=O)c2ccccc21
inactive: dose: 100.0 mg/kg/injection, schedule: Q01DX009 (ip), vehicle: saline with Tween-80 90 % of control | dose: 200.0 mg/kg/injection, schedule: Q01DX009 (ip), vehicle: saline with Tween-80 100 % of control | dose: 400.0 mg/kg/injection, schedule: Q01DX009 (ip), vehicle: saline with Tween-80 95 % of control

Cc1cc(O)c(C=Nc2ccccc2C)c(=O)o1
inactive: [7] 102 % of control | [8] 103 % of control | [9] 105 % of control

CCOC(=O)C(C(=O)OCC)C(C)(C)C
inactive: dose: 50.0 mg/kg/injection, schedule: Q01DX009 (ip), vehicle: saline 100 % of control | dose: 100.0 mg/kg/injection, schedule: Q01DX009 (ip), vehicle: saline 102 % of control | dose: 200.0 mg/kg/injection, schedule: Q01DX009 (ip), vehicle: saline 109 % of control | dose: 400.0 mg/kg/injection, schedule: Q01DX009 (ip), vehicle: saline 109 % of control

COc1cc(Br)cc(/C=C(\C)[N+](=O)[O-])c1O
inactive: dose: 12.5 mg/kg/injection, schedule: Q04DX003 (ip), vehicle: saline 101 % of control | dose: 25.0 mg/kg/injection, schedule: Q04DX003 (ip), vehicle: saline 99 % of control and 108 % of control | dose: 50.0 mg/kg/injection, schedule: Q04DX003 (ip), vehicle: saline 104 % of control and 110 % of control | [11] 104 % of control

Cc1nn(C)cc1P(=O)(c1ccccc1)c1ccccc1
inactive: [1] 98 % of control | [2] 96 % of control

O=NNc1nc(-c2ccccc2)ns1
inactive: dose: 1.56 mg/kg/injection, schedule: Q01DX009 (ip), vehicle: water 100 % of control | dose: 3.12 mg/kg/injection, schedule: Q01DX009 (ip), vehicle: water 100 % of control and 101 % of control | dose: 6.25 mg/kg/injection, schedule: Q01DX009 (ip), vehicle: water 104 % of control and 97 % of control | dose: 12.5 mg/kg/injection, schedule: Q01DX009 (ip), vehicle: water 100 % of control and 97 % of control | dose: 25.0 mg/kg/injection, schedule: Q01DX009 (ip), vehicle: water 101 % of control and 97 % of control | dose: 50.0 mg/kg/injection, schedule: Q01DX009 (ip), vehicle: water 100 % of control

c1ccc2sc(NCCSSCCNc3nc4ccccc4s3)nc2c1
inactive: dose: 25.0 mg/kg/injection, schedule: Q01DX009 (ip), vehicle: other 100 % of control | dose: 50.0 mg/kg/injection, schedule: Q01DX009 (ip), vehicle: other 86 % of control and 92 % of control | dose: 100.0 mg/kg/injection, schedule: Q01DX009 (ip), vehicle: other 90 % of control | dose: 200.0 mg/kg/injection, schedule: Q01DX009 (ip), vehicle: other 90 % of control and 93 % of control

CC1(C)/C=C/C2=Nc3cc(Br)c(Br)c(Br)c3C23CC(=O)N3/C=C(\Cl)c2nc(Br)[nH]c21 (stereo unspecified)
inactive: dose: 0.7 mg/kg/injection, schedule: Q01DX005 (ip), vehicle: Klucel (hydroxypropylcellulose) (HPC) 106 % of control | dose: 1.4 mg/kg/injection, schedule: Q01DX005 (ip), vehicle: Klucel (hydroxypropylcellulose) (HPC) 101 % of control | dose: 2.8 mg/kg/injection, schedule: Q01DX005 (ip), vehicle: Klucel (hydroxypropylcellulose) (HPC) 97 % of control | dose: 5.6 mg/kg/injection, schedule: Q01DX005 (ip), vehicle: Klucel (hydroxypropylcellulose) (HPC) 112 % of control

COc1cc2c(cc1C(C)c1ccc(OC(C)C)cc1)OCO2 (stereo unspecified)
inactive: [10] 103 % of control | [7] 98 % of control | [8] 100 % of control | [9] 98 % of control

Cc1ccc(S(=O)(=O)CC2(Br)Cc3ccccc3C2=O)cc1 (stereo unspecified)
inactive: [11] 103 % of control | dose: 200.0 mg/kg/injection, schedule: Q04DX003 (ip), vehicle: saline 100 % of control | dose: 400.0 mg/kg/injection, schedule: Q04DX003 (ip), vehicle: saline 100 % of control

Source: PubChem BioAssay AID330 (DTP/NCI, 2004)
